Where no end group is shown, it is not given here. [ ]: non-standard residue; d: D form. Nva = CCC[C@H](N)C(=O)O
Key:
Assay type in all cases: in vivo, mouse
D2.mdx mice [1] = assay: Western blotting of electron transport chain complex subunits in muscle
Protocol: D2.mdx mice were treated with ALY688 at two different dosages; high dose (HD; 15 mg/kg body weight/day) or low dose (LD; 3 mg/kg body weight/day) dissolved in saline. A separate group of mice were treated with saline alone (VEH, vehicle). Treatment was provided via subscapular subcutaneous injections from 7 days of age to 28-30 days. […] At 28-30 days of age, mice were anaesthetized with isoflurane vaporized in medical air (21% oxygen) at a 2 L/min flow rate. Due to tissue limitations in limb muscle, certain measures were performed separately in tibialis anterior and quadriceps across several phases of breeding. Following the treatment protocol, in situ quadriceps force assessments were then performed in one limb followed by removal of the quadriceps from the other limb for mitochondrial assessments, diaphragm for in vitro force assessments and finally other tissues for further processing as described below. Muscle and visceral organs weights were normalized to tibia length. Tissue collected from the first phase were utilized in force, histological, mitochondrial measures (respiration, mH2O2 and calcium retention capacity) and western analyses (diaphragm and quadriceps only). A second phase was then collected and utilized for cytokine profiling, qPCR analyses and additional westerns (TA only). Serum was collected from both phase 1 and 2 and utilized for serum CK analysis. All animals were utilized in in vivo functional assays (grip strength, cage hang time and voluntary wheel running).
Frozen sections of quadriceps and diaphragm from each muscle (approximately 10-30 mg in size) were homogenized using a plastic microcentrifuge tube with tapered Teflon pestle in ice-cold lysis buffer containing (in mM) (20 Tris/HCl, 150 NaCl, 1 EDTA, 1 EGTA, 1% Triton X-100, 2.5 Na4O7P2, 1 Na3VO4, pH 7.0) supplemented with protease (Sigma) and phosphatase inhibitors (Roche). A 12% gel was used to separate electron transport chain proteins and all other proteins were separated on a 10% gel. Following, all gels were transferred onto 0.2μm low fluorescence PVDF membrane (Bio-Rad, Mississauga, Canada) and blocked with Li-COR Intercept Blocking Buffer (LI-COR, Lincoln NE, USA) for 1 hour. Membranes were then incubated with specific primary antibodies (listed below) overnight at 4° C. A commercially available monoclonal rodent OXPHOS Cocktail (ab110413; Abcam, Cambridge, UK, 1:250 dilution) including V-ATP5A (55 kDa), III-UQCRC2 (48 kDa), IV-MTCO1 (40 kDa), II-SDHB (30 kDa), and I-NDUFB8 (20 kDa) were used to detect electron transport chain proteins. […] Prior to detection, membranes were washed in TBS-T three times for 5 minutes and then imaged using infrared imaging (LI-COR CLx; LI-COR, Lincoln, NE, USA) and quantified by densitometry (ImageJ, http://imagej.nih.gov/ij/). […]

D2.mdx mice [2] = assay: H&E staining, damaged areas of muscle
Protocol: (§1) D2.mdx mice were treated with ALY688 at two different dosages; high dose (HD; 15 mg/kg body weight/day) or low dose (LD; 3 mg/kg body weight/day) dissolved in saline. A separate group of mice were treated with saline alone (VEH, vehicle). Treatment was provided via subscapular subcutaneous injections from 7 days of age to 28-30 days. […] At 28-30 days of age, mice were anaesthetized with isoflurane vaporized in medical air (21% oxygen) at a 2 L/min flow rate. Due to tissue limitations in limb muscle, certain measures were performed separately in tibialis anterior and quadriceps across several phases of breeding. […]
Samples collected were cut into 8 µm thick serial cross sections with a cryostat (Thermo Fisher Scientific; Kalamazoo, MI, United States;) maintained at −20° C. on Fisherbrand Superfrost Plus slides (Thermo Fisher Scientific). […] Centralized nuclei, a marker of regenerating fibres, was analyzed by selecting five evenly spaced images throughout the muscle and averaging the result. Areas of damage (fibres with fragmented sarcoplasm and immune cell infiltration) were expressed as a percentage of the entire muscle section. Images were taken using EVOS M7000 imager (Thermo Fisher Scientific) using 20× magnification and analyzed using ImageJ (http://imagej.nih.gov/ij/). […] These images were then analyzed with ImageJ for minimal Feret's diameter as an index of muscle atrophy.

D2.mdx mice [3] = assay: In-vitro diaphragm force
Protocol: as §1
A silk suture was attached to the central tendons and the ribs and secured in a bath with oxygenated Ringers solution containing (in mM) 121 NaCl, 5 KCl, 1.8 CaCl2, 0.5 MgCl2, 0.4 NaHPO4, 24 NaHCO3, 5.5 glucose and 0.1 EDTA; pH 7.3 (95% O2/5% CO2) maintained at 25° C. with ribs secured to the force transducer with an s-hook and central tendon to the lever arm. […] After the force-frequency protocol was assessed, a 5 minute rest period was provided before a fatiguing protocol was performed (70 Hz for 350 ms every 2 seconds for 5 minutes). Recovery from fatigue was assessed at 5-, 10- and 15-minutes post fatigue at the frequency that elicited maximum force in the force-frequency protocol. […]

[dN]IP[Nva]LY[dS]FA[dS]-NH2 [ALY688]
complex IV content (D2.mdx mice [1]; diaphragm, LD): −27.0 % vs WT
total sum of electron transport chain complexes (D2.mdx mice [1]; diaphragm, disease state groups): −13.8 to −19.3 % vs WT
specific subunits of complex III and V (D2.mdx mice [1]; quadriceps and diaphragm, disease state groups (VEH, LD, HD)): −14.7 to −31.5 % vs WT
total sum of electron transport chain complexes (D2.mdx mice [1]; quadriceps, HD): −29.1 % vs WT
damaged areas (H&E) (D2.mdx mice [2]; diaphragm, all D2.mdx groups (VEH, LD, HD)): 3.7-to-3.9 fold change vs WT
damaged areas (H&E) (D2.mdx mice [2]; tibialis anterior, all three D2.mdx groups): 17.2-to-22.6 fold increase vs WT
muscle force production, change (D2.mdx mice [3]; diaphragm strips, both doses): −2.3% to −43.0
recovery from fatigue, change (D2.mdx mice [3]; diaphragm, high dose, printed range also covers quadriceps low dose): −5.3% to −50.9

Source: US20240382564A1, “Methods and Compositions for Treating Muscular Dystrophy and Memory Impairment” (Allysta Pharmaceuticals, Inc., priority 2023, published 2024)
